Reference: ChEMBL document CHEMBL4425114, “Development of Novel Alkoxyisoxazoles as Sigma-1 Receptor Antagonists with Antinociceptive Efficacy” (J Med Chem, 2016)
The source made the active and inactive calls. The calls are words filed in the database; no cut-off is given here.

Assays:
[1] = Toxicity in Kun Ming mouse assessed as decrease in rotarod latency at 40 and 80 mg/kg, ip measured after 60 to 120 mins by rotarod test relative to vehicle-treated control; assay type: organism-based; conditions: in vivo
[2] = AUMC (0 to infinity) in Kun Ming mouse brain at 40 mg/kg, po by LC-MS/MS analysis; assay type: ADME, organism-based; conditions: in vivo
[3] = molecular target: T1, Sodium-dependent serotonin transporter (Homo sapiens, UniProt P31645); experiment: biochemical; assay type: cell-based, HEK293
Target sequence in this assay (P31645 whole entry): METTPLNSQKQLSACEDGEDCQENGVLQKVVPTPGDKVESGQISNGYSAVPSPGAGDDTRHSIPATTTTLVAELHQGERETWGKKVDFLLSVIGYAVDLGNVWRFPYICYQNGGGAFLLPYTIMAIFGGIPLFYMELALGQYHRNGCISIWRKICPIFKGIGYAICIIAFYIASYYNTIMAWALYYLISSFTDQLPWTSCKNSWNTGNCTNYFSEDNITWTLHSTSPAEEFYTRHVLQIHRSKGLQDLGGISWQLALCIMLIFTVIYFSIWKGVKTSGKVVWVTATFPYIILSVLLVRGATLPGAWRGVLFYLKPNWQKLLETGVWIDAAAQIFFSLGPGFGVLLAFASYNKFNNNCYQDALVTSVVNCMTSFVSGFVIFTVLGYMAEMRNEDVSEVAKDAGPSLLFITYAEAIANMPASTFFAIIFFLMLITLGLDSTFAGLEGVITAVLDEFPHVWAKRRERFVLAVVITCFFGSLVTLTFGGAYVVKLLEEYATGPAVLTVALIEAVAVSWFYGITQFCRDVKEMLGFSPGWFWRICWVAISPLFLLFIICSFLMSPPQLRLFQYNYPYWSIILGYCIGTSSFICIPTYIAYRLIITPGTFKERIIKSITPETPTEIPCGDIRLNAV
Description: Displacement of [3H]citalopram from human SERT expressed in HEK293 cells measured after 30 mins

[4] = molecular target: Sigma non-opioid intracellular receptor 1 (Rattus norvegicus) (UniProt Q9R0C9); experiment: Displacement of [3H]-pentazocine from rat brain sigma1 receptor at 10 uM by PDSP assay
Sigma non-opioid intracellular receptor 1 (Rattus norvegicus), sequence (Q9R0C9 whole entry): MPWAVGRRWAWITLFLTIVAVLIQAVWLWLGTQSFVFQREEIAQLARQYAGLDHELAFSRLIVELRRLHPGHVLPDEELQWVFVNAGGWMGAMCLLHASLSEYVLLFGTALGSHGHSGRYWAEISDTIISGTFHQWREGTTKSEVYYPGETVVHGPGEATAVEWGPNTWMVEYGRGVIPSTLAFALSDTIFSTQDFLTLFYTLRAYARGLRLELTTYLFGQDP

[5] = Ratio of Cmax in brain to plasma of Kun Ming mouse at 40 mg/kg, po; assay type: ADME, organism-based
[6] = Mean residence time in Kun Ming mouse brain at 40 mg/kg, po by LC-MS/MS analysis; assay type: ADME, organism-based
[7] = molecular target: T1, Sodium-dependent serotonin transporter; conditions: HEK293, at 10 µM
Target sequence in this assay (P31645 whole entry, looked up): as the sequence (P31645 whole entry) above
Description: Displacement of [3H]citalopram from human SERT expressed in HEK293 cells at 10 uM measured after 30 mins

[8] = AUMC (0 to 8 hrs) in Kun Ming mouse plasma at 40 mg/kg, po by LC-MS/MS analysis; assay type: ADME, organism-based; conditions: in vivo
[9] = molecular target: Sigma non-opioid intracellular receptor 1 (Rattus norvegicus, UniProt Q9R0C9); experiment: Displacement of [3H]-pentazocine from rat brain sigma1 receptor by PDSP assay
Sigma non-opioid intracellular receptor 1, sequence (Q9R0C9 whole entry): as the sequence (Q9R0C9 whole entry) above

Mus musculus [10] = experiment: Antinociceptive activity in Kun Ming mouse assessed as reduction in paw licking and flinching time at 80 mg/kg, ip administered 15 mins prior to formalin challenge measured up to 45 mins post formalin dosing relative to vehicle-treated control; assay type: functional, organism-based
[11] = AUC (0 to 8 hrs) in Kun Ming mouse brain at 40 mg/kg, po by LC-MS/MS analysis; assay type: ADME, organism-based; set-up: time < 8 hr, dose 40 mg/kg, route oral; conditions: in vivo
[12] = Half life in Kun Ming mouse plasma at 40 mg/kg, po by LC-MS/MS analysis; assay type: ADME, organism-based
[13] = Elimination rate constant in Kun Ming mouse plasma at 40 mg/kg, po by LC-MS/MS analysis; assay type: ADME, organism-based
[14] = AUMC (0 to infinity) in Kun Ming mouse plasma at 40 mg/kg, po by LC-MS/MS analysis; assay type: ADME, organism-based; conditions: in vivo
[15] = AUC (0 to infinity) in Kun Ming mouse brain at 40 mg/kg, po by LC-MS/MS analysis; assay type: ADME, organism-based; set-up: dose 40 mg/kg, route oral, time infinity; conditions: in vivo
[16] = AUC (0 to 8 hrs) in Kun Ming mouse plasma at 40 mg/kg, po by LC-MS/MS analysis; assay type: ADME, organism-based; set-up: time < 8 hr, dose 40 mg/kg, route oral
[17] = AUC (0 to infinity) in Kun Ming mouse plasma at 40 mg/kg, po by LC-MS/MS analysis; assay type: ADME, organism-based; set-up: dose 40 mg/kg, route oral, time infinity
[18] = Half life in Kun Ming mouse brain at 40 mg/kg, po by LC-MS/MS analysis; assay type: ADME, organism-based
[19] = Mean residence time in Kun Ming mouse plasma at 40 mg/kg, po by LC-MS/MS analysis; assay type: ADME, organism-based
[20] = Cmax in Kun Ming mouse brain at 40 mg/kg, po by LC-MS/MS analysis; assay type: ADME, organism-based; set-up: dose 40 mg/kg, route oral
[21] = Cmax in Kun Ming mouse plasma at 40 mg/kg, po by LC-MS/MS analysis; assay type: ADME, organism-based; set-up: dose 40 mg/kg, route oral
Mus musculus [22] = experiment: Antinociceptive activity in Kun Ming mouse assessed as reduction in paw licking and flinching time at 40 mg/kg, ip administered 15 mins prior to formalin challenge measured after 0 to 10 mins post formalin dosing relative to vehicle-treated control; assay type: functional, organism-based
[23] = Ratio of AUC (0 to 8 hrs) in brain to plasma of Kun Ming mouse at 40 mg/kg, po; assay type: ADME, organism-based; conditions: read-out: Ratio AUC
[24] = Elimination rate constant in Kun Ming mouse brain at 40 mg/kg, po by LC-MS/MS analysis; assay type: ADME, organism-based
[25] = Tmax in Kun Ming mouse plasma at 40 mg/kg, po by LC-MS/MS analysis; assay type: ADME, organism-based
[26] = Tmax in Kun Ming mouse brain at 40 mg/kg, po by LC-MS/MS analysis; assay type: ADME, organism-based
[27] = Ratio of AUC (0 to infinity) in brain to plasma of Kun Ming mouse at 40 mg/kg, po; assay type: ADME, organism-based; conditions: read-out: Ratio AUC
Mus musculus [28] = experiment: Antinociceptive activity in Kun Ming mouse assessed as reduction in paw licking and flinching time at 40 mg/kg, ip administered 15 mins prior to formalin challenge measured after 11 to 45 mins post formalin dosing relative to vehicle-treated control; assay type: functional, organism-based
[29] = molecular target: Sodium-dependent noradrenaline transporter (Homo sapiens, UniProt P23975); experiment: Displacement of [3H]nisoxetine from human NET expressed in HEK293 cells measured after 30 mins; assay type: cell-based
Sodium-dependent noradrenaline transporter, sequence (P23975 whole entry): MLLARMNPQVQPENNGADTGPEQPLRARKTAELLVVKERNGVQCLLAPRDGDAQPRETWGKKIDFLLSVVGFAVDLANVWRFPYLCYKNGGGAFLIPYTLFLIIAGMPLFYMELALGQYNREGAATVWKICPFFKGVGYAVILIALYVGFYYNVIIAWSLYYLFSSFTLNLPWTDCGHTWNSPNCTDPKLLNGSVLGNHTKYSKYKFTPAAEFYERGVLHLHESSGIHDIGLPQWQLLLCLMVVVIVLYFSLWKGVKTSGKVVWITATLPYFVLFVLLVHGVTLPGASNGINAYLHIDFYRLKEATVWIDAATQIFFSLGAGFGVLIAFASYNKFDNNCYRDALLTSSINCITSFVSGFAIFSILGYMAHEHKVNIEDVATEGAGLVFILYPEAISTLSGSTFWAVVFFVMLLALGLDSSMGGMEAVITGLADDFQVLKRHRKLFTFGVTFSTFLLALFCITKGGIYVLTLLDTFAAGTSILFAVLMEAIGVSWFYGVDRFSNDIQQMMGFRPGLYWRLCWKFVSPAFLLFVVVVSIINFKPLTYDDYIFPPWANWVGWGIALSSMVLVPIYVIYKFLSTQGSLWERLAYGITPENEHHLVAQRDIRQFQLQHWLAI

[30] = AUMC (0 to 8 hrs) in Kun Ming mouse brain at 40 mg/kg, po by LC-MS/MS analysis; assay type: ADME, organism-based; conditions: in vivo
[31] = Permeability of the compound after 18 hrs by PAMPA assay; assay type: ADME; conditions: read-out: permeability
[32] = molecular target: Sigma non-opioid intracellular receptor 1 (Cavia porcellus) (UniProt Q60492); experiment: Binding affinity to sigma1 receptor form guinea pig brain membrane in presence of phenytoin […]
Sigma non-opioid intracellular receptor 1 (Cavia porcellus), sequence (Q60492 whole entry): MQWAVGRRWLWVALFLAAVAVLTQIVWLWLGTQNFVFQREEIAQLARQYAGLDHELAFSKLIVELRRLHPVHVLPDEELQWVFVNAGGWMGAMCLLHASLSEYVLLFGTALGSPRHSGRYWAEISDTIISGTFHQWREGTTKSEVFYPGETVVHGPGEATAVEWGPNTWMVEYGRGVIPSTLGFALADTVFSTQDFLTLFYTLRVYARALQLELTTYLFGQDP

[33] = molecular target: T2, Sodium-dependent dopamine transporter (Homo sapiens, UniProt Q01959)
T2 sequence (Q01959 whole entry): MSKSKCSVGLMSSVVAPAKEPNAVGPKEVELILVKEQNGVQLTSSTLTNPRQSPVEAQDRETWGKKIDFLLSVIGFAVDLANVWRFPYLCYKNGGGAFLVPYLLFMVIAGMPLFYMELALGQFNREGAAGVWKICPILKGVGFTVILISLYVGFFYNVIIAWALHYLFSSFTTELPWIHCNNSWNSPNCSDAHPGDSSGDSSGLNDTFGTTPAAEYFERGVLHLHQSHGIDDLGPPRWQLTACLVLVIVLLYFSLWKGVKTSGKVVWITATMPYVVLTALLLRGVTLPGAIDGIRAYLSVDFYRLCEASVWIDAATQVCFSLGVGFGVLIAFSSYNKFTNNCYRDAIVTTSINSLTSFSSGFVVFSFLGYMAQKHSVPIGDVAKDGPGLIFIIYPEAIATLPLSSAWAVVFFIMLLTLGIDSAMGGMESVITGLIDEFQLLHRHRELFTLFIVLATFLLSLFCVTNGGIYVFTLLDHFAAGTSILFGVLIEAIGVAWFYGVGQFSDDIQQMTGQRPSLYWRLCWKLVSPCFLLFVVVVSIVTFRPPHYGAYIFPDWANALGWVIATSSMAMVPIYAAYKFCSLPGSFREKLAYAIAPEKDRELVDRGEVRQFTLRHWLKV
Description: Displacement of [3H]-WIN35428 from human DAT expressed in HEK293 cells measured after 30 mins

[34] = molecular target: T2, Sodium-dependent dopamine transporter; experiment: Displacement of [3H]-WIN35428 from human DAT expressed in HEK293 cells at 10 uM measured after 30 mins; assay type: cell-based
[35] = molecular target: T3, Sigma intracellular receptor 2 (Rattus norvegicus, UniProt Q5U3Y7); experiment: Displacement of [3H]DTG from rat brain sigma2 receptor by PDSP assay
T3 sequence (Q5U3Y7 whole entry): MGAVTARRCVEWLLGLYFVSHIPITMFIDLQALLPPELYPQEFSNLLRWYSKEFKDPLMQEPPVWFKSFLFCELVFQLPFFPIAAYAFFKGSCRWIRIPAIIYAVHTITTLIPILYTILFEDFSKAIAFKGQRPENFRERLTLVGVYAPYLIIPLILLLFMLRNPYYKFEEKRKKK

With `CN(CCOc1cc(COc2ccccc2)on1)CC1CC1.Cl` the Activity [1] was “Non-Toxic”, the AUMC [2] was 935 hr.hr.ng/g and the Ki [3] was over 10 µM. The inhibition [4] was over 50%, the Kp [5] was 2 and the MRT [6] was 2.32 h. For the same compound, the inhibition [7] was under 50%, the AUMC [8] was 91.5 hr.hr.ng/ml and the Ki [9] was 0.0008 µM. The Activity (Mus musculus [10]) was “Active”, the AUC [11] was 373 ng·h/g and the half-life [12] was 2.64 h. The k el [13] was 7.31e-05 s⁻¹, the AUMC [14] was 157 hr.hr.ng/ml and the AUC [15] was 403 ng·h/g. It also gave an AUC(0-t) at 8 h [16] of 108 ng·h/mL, an AUC(0-inf) [17] of 113 ng·h/mL and a half-life [18] of 2.52 h. For the same compound, the MRT [19] was 1.39 h, the Cmax [20] was 395 ng/g and the Cmax [21] was 193 ng/mL. For the same compound, the Activity (Mus musculus [22]) was “inactive”, the Kp [23] was 3.6 and the k el [24] was 7.67e-05 s⁻¹. It also gave a Tmax [25] of 0.167 h, a Tmax [26] of 0.167 h and a Kp [27] of 3.6. The Activity (Mus musculus [28]) was “Active”, the Ki [29] was over 10 µM and the AUMC [30] was 578 hr.hr.ng/g. The Papp at 18 h [31] was 2 to 4 ×10⁻⁶ cm/s, the Activity [32] was “inactive” and the Ki [33] was over 10 µM. It also gave an inhibition [34] of under 50% and a Ki [35] of 0.225 µM.
